The record followed here is patent US20240409573A1, “CALICHEAMICIN DERIVATIVES AND ANTIBODY DRUG CONJUGATES THEREOF” (priority 2017, published 2024).

Common to all, as to format: cell-based
In assay [1] the test system is HT29 cells, Her2-non-expressing. Nature of the assay: In vitro cell assay, cell viability by MTS, HT29. As to conditions: Homo sapiens, HT-29, 96 h, read-out: Average IC50, HT29. The procedure:
(§1) Her2-Target expressing (BT474 (breast cancer), N87 (gastric cancer), MDA-MB-361-DYT2 (breast cancer)) or Her2-non-expressing (MDA-MB-468, HT29) cells, or 0033-target expressing HL60, HEL92.1.7, NB4, TF-1 or 0033-non-expressing (Raji) cells were seeded in 96-well cell culture plates for 24 hours before treatment. Cells were treated with 3-fold serially diluted antibody-drug conjugates or free compounds (i.e., no antibody conjugated to the drug) in duplicate at 10 concentrations. Cell viability was determined by CellTiter 96® AQueous One Solution Cell Proliferation MTS Assay (Promega, Madison WI) 96 hours after treatment. Relative cell viability was determined as percentage of untreated control. IC50 values were calculated using a four parameter logistic model #203 with XLfit v4.2 (IDBS, Guildford, Surry, UK). Results are shown below in Table 3 (for payloads), Table 4 (for Herceptin conjugates), and Table 5 (for CD33 conjugates).

In assay [2] the test system is MDA-MB-361-DYT2 (breast cancer) cells, Her2-target expressing. Nature of the assay: In vitro cell assay, cell viability by MTS, MDA-MB-361-DYT2. As to conditions: 96 h, read-out: Average IC50, MDA-MB-361-DYT2. The procedure: as §1
Assay [3] deals with Raji cells, CD33-non-expressing. Nature of the assay: In vitro cell assay, cell viability by MTS, Raji. The conditions noted are these: Homo sapiens, 96 h, read-out: Average IC50, Raji. The procedure: as §1
Assay [4] deals with HL60 cells, CD33-target expressing. Nature of the assay: In vitro cell assay, cell viability by MTS, HL60. The conditions noted are these: Homo sapiens, HL-60, 96 h, read-out: Average IC50, HL-60. The procedure: as §1
In assay [5] the test system is HEL92.1.7 cells, CD33-target expressing. Briefly: In vitro cell assay, cell viability by MTS, HEL92.1.7. The conditions noted are these: Homo sapiens, HEL 92.1.7, 96 h, read-out: Average IC50, HEL92.1.7. The procedure:
as §1

Assay [6] concerns NB4 cells, CD33-target expressing. Nature of the assay: In vitro cell assay, cell viability by MTS, NB4. As to conditions: Homo sapiens, NB-4, 96 h, read-out: Average IC50, NB4. The procedure:
as §1

Assay [7] relates to N87 (gastric cancer) cells, Her2-target expressing. Nature of the assay: In vitro cell assay, cell viability by MTS, N87. The conditions noted are these: 96 h, read-out: Average IC50, N87. The procedure: as §1
Assay [8] relates to TF-1 cells, CD33-target expressing. Briefly: In vitro cell assay, cell viability by MTS, TF-1. As to conditions: Homo sapiens, TF-1, 96 h, read-out: Average IC50, TF-1. The procedure: as §1

SMILES strings stand for the structures.

Regarding `CCN[C@H]1CO[C@@H](O[C@@H]2C(O)[C@H](NO[C@H]3C[C@H](O)[C@H](SC(=O)c4c(C)c(I)c(O[C@@H]5O[C@@H](C)[C@H](O)[C@@H](OC)[C@H]5O)c(OC)c4OC)[C@@H](C)O3)[C@@H](C)O[C@H]2O[C@H]2C#C/C=C\C#C[C@]3(O)CC(=O)C(NC(=O)OC)=C2/C3=C\CSSC(C)(C)CCC(=O)NCCCC[C@H](N)C(=O)O)C[C@@H]1OC` (stereo in doubt) [Example P43], the IC50 in assay [1] was found to be 3.18 nM; in assay [2] it was 6.4 nM; in assay [3], 2.85 nM; in assay [4], 1.36 nM; in assay [5], 4.9 nM; in assay [6], 0.516 nM. For the same molecule, the IC50 came to 1.23 nM in assay [7] and 9.01 nM in assay [8].

Turning to `CCN[C@H]1CO[C@@H](O[C@@H]2C(O)[C@H](NO[C@H]3C[C@H](O)[C@H](SC(=O)c4c(C)c(I)c(O[C@@H]5O[C@@H](C)[C@H](O)[C@@H](OC)[C@H]5O)c(OC)c4OC)[C@@H](C)O3)[C@@H](C)O[C@H]2O[C@H]2C#C/C=C\C#C[C@]3(O)CC(=O)C(NC(=O)OC)=C2/C3=C\CSSc2ncccc2C(=O)O)C[C@@H]1OC` (stereo in doubt) [Example P46], the IC50 in assay [1] was determined as 0.77 nM; in assay [2] it was 2.83 nM; in assay [3], 0.039 nM; in assay [4], 0.025 nM; in assay [5], 0.046 nM; in assay [6] it was 0.02 nM. The IC50 in assay [7] was determined as 0.544 nM; in assay [8], 0.176 nM.

As for `CCN[C@H]1CO[C@@H](O[C@@H]2C(O)[C@H](NO[C@H]3C[C@H](O)[C@H](SC(=O)c4c(C)c(I)c(O[C@@H]5O[C@@H](C)[C@H](O)[C@@H](OC)[C@H]5O)c(OC)c4OC)[C@@H](C)O3)[C@@H](C)O[C@H]2O[C@H]2C#C/C=C\C#C[C@]3(O)CC(=O)C(NC(=O)OC)=C2/C3=C\CSS[C@H](C)CO)C[C@@H]1OC` (stereo in doubt) [Example P47], the IC50 is 1.4 nM in assay [1]; 6.54 nM in assay [2]; 0.05 nM in assay [3]; 0.054 nM in assay [4]; 0.141 nM in assay [5]; 0.04 nM in assay [6]. For the same molecule, the IC50 in assay [7] was 1.87 nM; in assay [8], 0.737 nM.

Take `CCN[C@H]1CO[C@@H](O[C@H]2[C@H](O[C@H]3C#C/C=C\C#C[C@]4(O)CC(=O)C(NC(=O)OC)=C3/C4=C\CSSC(C)C)O[C@H](C)[C@@H](NO[C@H]3C[C@H](O)[C@H](SC(=O)c4c(C)c(I)c(O[C@@H]5O[C@@H](C)[C@H](O)[C@@H](OC)[C@H]5O)c(OC)c4OC)[C@@H](C)O3)[C@@H]2O)C[C@@H]1OC` [Example P1]: the half-inhibitory concentration (IC50) was 0.003 nM in assay [1]; 0.021 nM in assay [2]; 0.006 nM in assay [3]; 0.003 nM in assay [4]; 0.028 nM in assay [5]; 0.003 nM in assay [6]. Moreover, the figures for the IC50 in assay [7] and in assay [8] were 0.007 nM and 0.071 nM, respectively.

On to `CCN[C@H]1CO[C@@H](O[C@H]2[C@H](O[C@H]3C#C/C=C\C#C[C@]4(O)CC(=O)C(NC(=O)OC)=C3/C4=C\CSSc3ccccc3C(=O)O)O[C@H](C)[C@@H](NO[C@H]3C[C@H](O)[C@H](SC(=O)c4c(C)c(I)c(O[C@@H]5O[C@@H](C)[C@H](O)[C@@H](OC)[C@H]5O)c(OC)c4OC)[C@@H](C)O3)[C@@H]2O)C[C@@H]1OC` [Example P3], for which the half-maximal inhibitory concentration (IC50) amounted to 0.69 nM in assay [1]; 1.75 nM in assay [2]; 0.378 nM in assay [3]; 0.149 nM in assay [4]; 0.371 nM in assay [5]; 0.081 nM in assay [6]. In addition, the IC50 stood at 0.309 nM in assay [7] and 1.64 nM in assay [8].

Turning to `CCN[C@H]1CO[C@@H](O[C@H]2[C@H](O[C@H]3C#C/C=C\C#C[C@]4(O)CC(=O)C(NC(=O)OC)=C3/C4=C\CSSC(CC(=O)O)C(=O)O)O[C@H](C)[C@@H](NO[C@H]3C[C@H](O)[C@H](SC(=O)c4c(C)c(I)c(O[C@@H]5O[C@@H](C)[C@H](O)[C@@H](OC)[C@H]5O)c(OC)c4OC)[C@@H](C)O3)[C@@H]2O)C[C@@H]1OC` (some centres unmarked) [Example P6], the half-inhibitory concentration (IC50) was determined as 1.14 nM in assay [1]; 1.35 nM in assay [2]; 1.21 nM in assay [3]; 0.568 nM in assay [4]; 0.492 nM in assay [6]; 1.24 nM in assay [7]. The IC50 in assay [8] is 5.93 nM.

As for `CCN[C@H]1CO[C@@H](O[C@H]2[C@H](O[C@H]3C#C/C=C\C#C[C@]4(O)CC(=O)C(NC(=O)OC)=C3/C4=C\CSSC(C)(C)CC(=O)N(C)C)O[C@H](C)[C@@H](NO[C@H]3C[C@H](O)[C@H](SC(=O)c4c(C)c(I)c(O[C@@H]5O[C@@H](C)[C@H](O)[C@@H](OC)[C@H]5O)c(OC)c4OC)[C@@H](C)O3)[C@@H]2O)C[C@@H]1OC` [Example P31], the IC50 in assay [1] came to 0.01 nM; in assay [2], 0.032 nM; in assay [3], 0.008 nM; in assay [4], 0.011 nM; in assay [7], 0.051 nM; in assay [8], 0.084 nM.

`CCN[C@H]1CO[C@@H](O[C@H]2[C@H](O[C@H]3C#C/C=C\C#C[C@]4(O)CC(=O)C(NC(=O)OC)=C3/C4=C\CSSC(C)(C)CC(=O)O)O[C@H](C)[C@@H](NO[C@H]3C[C@H](O)[C@H](SC(=O)c4c(C)c(I)c(O[C@@H]5O[C@@H](C)[C@H](O)[C@@H](OC)[C@H]5O)c(OC)c4OC)[C@@H](C)O3)[C@@H]2O)C[C@@H]1OC` [Example P32]: the IC50 in assay [1] amounted to 0.004 nM; in assay [2], 0.013 nM; in assay [3] it was 0.004 nM; in assay [4], 0.003 nM; in assay [7], 0.015 nM; in assay [8], 0.038 nM.

Turning to `CCN[C@H]1CO[C@@H](O[C@H]2[C@H](O[C@H]3C#C/C=C\C#C[C@]4(O)CC(=O)C(NC(=O)OC)=C3/C4=C\CSSC(C)(C)[C@H](N)C(=O)O)O[C@H](C)[C@@H](NO[C@H]3C[C@H](O)[C@H](SC(=O)c4c(C)c(I)c(O[C@@H]5O[C@@H](C)[C@H](O)[C@@H](OC)[C@H]5O)c(OC)c4OC)[C@@H](C)O3)[C@@H]2O)C[C@@H]1OC` [Example P33], the half-maximal inhibitory concentration (IC50) came to 0.386 nM in assay [1]; 1.5 nM in assay [2]; 0.261 nM in assay [3]; 0.205 nM in assay [4]; 1.66 nM in assay [7]; 1.09 nM in assay [8].

Take `CCN[C@H]1CO[C@@H](O[C@H]2[C@H](O[C@H]3C#C/C=C\C#C[C@]4(O)CC(=O)C(NC(=O)OC)=C3/C4=C\CSSC(C)(C)CCNC(=O)[C@H](CCCNC(N)=O)NC(=O)[C@@H](NC(C)=O)C(C)C)O[C@H](C)[C@@H](NO[C@H]3C[C@H](O)[C@H](SC(=O)c4c(C)c(I)c(O[C@@H]5O[C@@H](C)[C@H](O)[C@@H](OC)[C@H]5O)c(OC)c4OC)[C@@H](C)O3)[C@@H]2O)C[C@@H]1OC` [Example P35]: the IC50 in assay [1] came out at 3.67 nM; in assay [2], 2.34 nM; in assay [3], 2.1 nM; in assay [4], 2.25 nM; in assay [7], 14.7 nM; in assay [8] it was 7.5 nM.

With `CCN[C@H]1CO[C@@H](O[C@H]2[C@H](O[C@H]3C#C/C=C\C#C[C@]4(O)CC(=O)C(NC(=O)OC)=C3/C4=C\CSSC(C)(C)CNCCOc3ccccc3)O[C@H](C)[C@@H](NO[C@H]3C[C@H](O)[C@H](SC(=O)c4c(C)c(I)c(O[C@@H]5O[C@@H](C)[C@H](O)[C@@H](OC)[C@H]5O)c(OC)c4OC)[C@@H](C)O3)[C@@H]2O)C[C@@H]1OC` [Example P36], the IC50 came to 1.28 nM in assay [1]; 3.85 nM in assay [2]; 1.13 nM in assay [3]; 0.881 nM in assay [4]; 6.2 nM in assay [7]; 6.86 nM in assay [8].

Consider `CCN(C(=O)Nc1ccc(CNC(=O)OCC2c3ccccc3-c3ccccc32)cc1)[C@H]1CO[C@@H](O[C@H]2[C@H](O[C@H]3C#C/C=C\C#C[C@]4(O)CC(=O)C(NC(=O)OC)=C3/C4=C\CSSC(C)(C)C)O[C@H](C)[C@@H](NO[C@H]3C[C@H](O)[C@H](SC(=O)c4c(C)c(I)c(O[C@@H]5O[C@@H](C)[C@H](O)[C@@H](OC)[C@H]5O)c(OC)c4OC)[C@@H](C)O3)[C@@H]2O)C[C@@H]1OC` [Example P49], for which the IC50 was 0.006 nM in assay [1]; below 0.1 nM in assay [2]; 0.002 nM in assay [3]; 0.003 nM in assay [4]; 0.007 nM in assay [7]; 0.051 nM in assay [8].
